Data from PubChem BioAssay AID248 (DTP/NCI, 2004).
Where “and” joins values, the source holds several entries; their conditions need not be identical. Identical values can stand only once. Inconclusive results and toxic doses are left out. Peptide text beside a SMILES is read from it. * marks the point of attachment. Trt = c1ccc(C(c2ccccc2)(c2ccccc2)*)cc1; Boc = CC(C)(C)OC(=O)*

Test system: L1210 leukemia ip in BDF1 mice, survival T/C
Assay: NCI In Vivo Anticancer Drug Screen. Data for tumor model L1210 Leukemia (intraperitoneal) in B6D2F1 (BDF1) mice
Conditions: endpoint: mean survival time, higher = longer survival
Outline: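 Each compound was tested against a transplantable tumor grown in mice. The endpoint was survival, with treated animals benchmarked against vehicle controls as a simple ratio.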

[1] = dose: 100.0 mg/kg/injection, schedule: Q04DX003 (ip), vehicle: saline with Tween-80
[2] = dose: 200.0 mg/kg/injection, schedule: Q04DX003 (ip), vehicle: saline with Tween-80
[3] = dose: 400.0 mg/kg/injection, schedule: Q04DX003 (ip), vehicle: saline with Tween-80
[4] = dose: 100.0 mg/kg/injection, schedule: Q04DX002 (ip), vehicle: saline with Tween-80
[5] = dose: 200.0 mg/kg/injection, schedule: Q04DX002 (ip), vehicle: saline with Tween-80
[6] = dose: 300.0 mg/kg/injection, schedule: Q01DX009 (ip), vehicle: Klucel (hydroxypropylcellulose) (HPC)
[7] = dose: 100.0 mg/kg/injection, schedule: Q01DX009 (ip), vehicle: Klucel (hydroxypropylcellulose) (HPC)
[8] = dose: 200.0 mg/kg/injection, schedule: Q01DX009 (ip), vehicle: Klucel (hydroxypropylcellulose) (HPC)
[9] = dose: 100.0 mg/kg/injection, schedule: Q04DX003 (ip), vehicle: Klucel (hydroxypropylcellulose) (HPC)
[10] = dose: 200.0 mg/kg/injection, schedule: Q04DX003 (ip), vehicle: Klucel (hydroxypropylcellulose) (HPC)
[11] = dose: 400.0 mg/kg/injection, schedule: Q01DX009 (ip), vehicle: Klucel (hydroxypropylcellulose) (HPC)
[12] = dose: 400.0 mg/kg/injection, schedule: Q04DX003 (ip), vehicle: Klucel (hydroxypropylcellulose) (HPC)

**Q.** `N#CC(C#N)N=Nc1ccc(Cl)cc1Cl` was tested. Which T/C (dose: 2.5 mg/kg/injection, schedule: Q04DX002 (ip), vehicle: Klucel (hydroxypropylcellulose) (HPC)) did it give?
**A.** The T/C was 98 % of control.

**Q.** And the T/C (dose: 5.0 mg/kg/injection, schedule: Q04DX002 (ip), vehicle: Klucel (hydroxypropylcellulose) (HPC))?
**A.** The T/C was 102 % of control.

**Q.** What about the T/C (dose: 10.0 mg/kg/injection, schedule: Q04DX002 (ip), vehicle: Klucel (hydroxypropylcellulose) (HPC)) of the same compound?
**A.** Its T/C is 98 % of control.

**Q.** What does the source list for `CCCCOc1ccc(NC(=O)N(C)C)cn1`?
**A.** T/C [1]: 94 % of control; T/C [2]: 96 % of control; T/C [3]: 87 % of control

**Q.** For `O=C(NC(=S)NNC(=S)NNc1ccccc1)c1ccccc1`, which T/C (dose: 12.5 mg/kg/injection, schedule: Q04DX002 (ip), vehicle: saline with Tween-80) is on record?
**A.** The T/C was 101 % of control.

**Q.** What about the T/C (dose: 25.0 mg/kg/injection, schedule: Q01DX009 (ip), vehicle: saline with Tween-80) of the same compound?
**A.** The T/C was 102 % of control.

**Q.** What about the T/C (dose: 25.0 mg/kg/injection, schedule: Q04DX002 (ip), vehicle: saline with Tween-80) of the same compound?
**A.** The T/C was 107 % of control and 90 % of control.

**Q.** What about the T/C (dose: 50.0 mg/kg/injection, schedule: Q01DX009 (ip), vehicle: saline with Tween-80) of the same compound?
**A.** The T/C was 115 % of control.

**Q.** And the T/C (dose: 50.0 mg/kg/injection, schedule: Q04DX002 (ip), vehicle: saline with Tween-80)?
**A.** Its T/C is 108 % of control.

**Q.** What about the T/C [4] of the same compound?
**A.** Its T/C is 96 % of control and 101 % of control and 110 % of control.

**Q.** And the T/C [5]?
**A.** The T/C was 108 % of control.

**Q.** `NC(=O)c1ncc(-c2ccccc2)[nH]c1=O` was tested. Which T/C (dose: 100.0 mg/kg/injection, schedule: Q01DX009 (ip), vehicle: saline) did it give?
**A.** The T/C was 105 % of control.

**Q.** And the T/C (dose: 200.0 mg/kg/injection, schedule: Q01DX009 (ip), vehicle: saline)?
**A.** Its T/C is 92 % of control.

**Q.** Which results are given for `C=C1C(O)CC2CC1C2(C)C` (stereo unspecified)?
**A.** T/C [1]: 92 % of control; T/C [2]: 92 % of control

**Q.** With `CC(NP1(=O)OCC(C)(N=Cc2ccccc2)CO1)c1ccccc1` (stereo unspecified) as the compound, how does the T/C (dose: 50.0 mg/kg/injection, schedule: Q01DX001 (ip), vehicle: saline) read?
**A.** Its T/C is 104 % of control.

**Q.** What about the T/C (dose: 100.0 mg/kg/injection, schedule: Q01DX001 (ip), vehicle: saline) of the same compound?
**A.** The T/C was 98 % of control.

**Q.** What about the T/C (dose: 200.0 mg/kg/injection, schedule: Q01DX001 (ip), vehicle: saline) of the same compound?
**A.** The T/C was 104 % of control.

**Q.** What about the T/C (dose: 400.0 mg/kg/injection, schedule: Q01DX001 (ip), vehicle: saline) of the same compound?
**A.** The T/C was 95 % of control.

**Q.** For `CC(C)(C)OC(=O)NCCCCC(NC(=O)CNC(=O)C(CSC(c1ccccc1)(c1ccccc1)c1ccccc1)NC(=O)OC(C)(C)C)C(=O)O` (stereo unspecified) (Boc-Cys(Trt)-Gly-Lys(Boc)-OH; configuration not given here), which T/C (dose: 25.0 mg/kg/injection, schedule: Q04DX003 (ip), vehicle: saline with Tween-80) is on record?
**A.** The T/C was 96 % of control.

**Q.** What about the T/C (dose: 50.0 mg/kg/injection, schedule: Q04DX003 (ip), vehicle: saline with Tween-80) of the same compound?
**A.** The T/C was 98 % of control.

**Q.** What about the T/C [1] of the same compound?
**A.** The T/C was 94 % of control.

**Q.** For `O=C(Nc1ccc(NC(=O)OCc2ccccc2)c(Cl)c1)OCc1ccccc1`, which T/C (dose: 75.0 mg/kg/injection, schedule: Q01DX001 (ip), vehicle: Klucel (hydroxypropylcellulose) (HPC)) is on record?
**A.** Its T/C is 93 % of control.

**Q.** And the T/C (dose: 75.0 mg/kg/injection, schedule: Q01DX009 (ip), vehicle: Klucel (hydroxypropylcellulose) (HPC))?
**A.** The T/C was 92 % of control.

**Q.** And the T/C (dose: 150.0 mg/kg/injection, schedule: Q01DX001 (ip), vehicle: Klucel (hydroxypropylcellulose) (HPC))?
**A.** The T/C was 95 % of control.

**Q.** What about the T/C (dose: 150.0 mg/kg/injection, schedule: Q01DX009 (ip), vehicle: Klucel (hydroxypropylcellulose) (HPC)) of the same compound?
**A.** The T/C was 94 % of control.

**Q.** And the T/C (dose: 300.0 mg/kg/injection, schedule: Q01DX001 (ip), vehicle: Klucel (hydroxypropylcellulose) (HPC))?
**A.** Its T/C is 95 % of control.

**Q.** What about the T/C [6] of the same compound?
**A.** Its T/C is 94 % of control.

**Q.** Which T/C (dose: 12.0 mg/kg/injection, schedule: Q01DX001 (ip), vehicle: other) does the source give for `O=NN(CCCl)C(=O)NC1C2CC3CC(C2)CC1C3` (stereo unspecified) here?
**A.** Its T/C is 110 % of control.

**Q.** And the T/C (dose: 18.0 mg/kg/injection, schedule: Q01DX001 (ip), vehicle: other)?
**A.** Its T/C is 114 % of control.

**Q.** And the T/C (dose: 26.0 mg/kg/injection, schedule: Q01DX001 (ip), vehicle: other)?
**A.** The T/C was 123 % of control.

**Q.** What about the T/C (dose: 40.0 mg/kg/injection, schedule: Q01DX001 (ip), vehicle: other) of the same compound?
**A.** The T/C was 163 % of control.

**Q.** And the T/C (dose: 60.0 mg/kg/injection, schedule: Q01DX001 (ip), vehicle: other)?
**A.** The T/C was 244 % of control.

**Q.** What about the T/C (dose: 93.0 mg/kg/injection, schedule: Q01DX001 (ip), vehicle: other) of the same compound?
**A.** The T/C was 323 % of control.

**Q.** What about the T/C (dose: 187.0 mg/kg/injection, schedule: Q01DX001 (ip), vehicle: other) of the same compound?
**A.** The T/C was 340 % of control.

**Q.** Which results are given for `O=C(c1cccc(F)c1)C(F)(F)F`?
**A.** T/C [7]: 96 % of control; T/C [8]: 104 % of control; T/C [6]: 93 % of control

**Q.** How did the T/C [1] turn out when `c1ccc(C2=NC3CCCCC3N=C2c2ccccc2)cc1` (stereo unspecified) was run?
**A.** The T/C was 101 % of control.

**Q.** And the T/C [2]?
**A.** Its T/C is 95 % of control.

**Q.** What about the T/C [3] of the same compound?
**A.** The T/C was 96 % of control.

**Q.** What does the source list for `CCOC(=O)c1ccc(NS(C)(=O)=O)cc1`?
**A.** T/C [7]: 95 % of control; T/C [9]: 114 % of control; T/C [8]: 95 % of control; T/C [10]: 102 % of control; T/C [11]: 92 % of control; T/C [12]: 100 % of control

**Q.** Which results are given for `CN(C)c1ccc(/C=N/NC=O)c(Cl)c1`?
**A.** T/C (dose: 10.0 mg/kg/injection, schedule: Q01DX001 (ip), vehicle: acetone): 103 % of control; T/C (dose: 20.0 mg/kg/injection, schedule: Q01DX001 (ip), vehicle: acetone): 110 % of control; T/C (dose: 40.0 mg/kg/injection, schedule: Q01DX001 (ip), vehicle: acetone): 95 % of control

**Q.** `COc1ccc(C)cc1NC(=O)c1ccc(F)cc1` was tested. Which T/C [7] did it give?
**A.** Its T/C is 94 % of control.

**Q.** And the T/C [8]?
**A.** Its T/C is 97 % of control.

**Q.** And the T/C [11]?
**A.** The T/C was 100 % of control.

**Q.** With `O=C(O)c1ccc([N+](=O)[O-])cc1O` as the compound, how does the T/C (dose: 100.0 mg/kg/injection, schedule: Q01DX001 (ip), vehicle: carboxymethylcellulose (CMC)) read?
**A.** The T/C was 101 % of control.

**Q.** What about the T/C [4] of the same compound?
**A.** The T/C was 95 % of control.

**Q.** And the T/C (dose: 200.0 mg/kg/injection, schedule: Q01DX001 (ip), vehicle: carboxymethylcellulose (CMC))?
**A.** The T/C was 97 % of control.

**Q.** What about the T/C [5] of the same compound?
**A.** The T/C was 98 % of control.

**Q.** And the T/C (dose: 400.0 mg/kg/injection, schedule: Q04DX002 (ip), vehicle: saline with Tween-80)?
**A.** The T/C was 102 % of control.

**Q.** For `CCOC(=O)C(C#N)C1CCCCC1` (stereo unspecified), which T/C (dose: 25.0 mg/kg/injection, schedule: Q01DX009 (ip), vehicle: Klucel (hydroxypropylcellulose) (HPC)) is on record?
**A.** The T/C was 109 % of control.

**Q.** And the T/C (dose: 50.0 mg/kg/injection, schedule: Q01DX009 (ip), vehicle: Klucel (hydroxypropylcellulose) (HPC))?
**A.** Its T/C is 102 % of control.

**Q.** What about the T/C (dose: 100.0 mg/kg/injection, schedule: Q01DX001 (ip), vehicle: saline with Tween-80) of the same compound?
**A.** Its T/C is 98 % of control.

**Q.** And the T/C [7]?
**A.** The T/C was 102 % of control.

**Q.** What about the T/C [9] of the same compound?
**A.** Its T/C is 102 % of control.

**Q.** And the T/C (dose: 200.0 mg/kg/injection, schedule: Q01DX001 (ip), vehicle: saline with Tween-80)?
**A.** The T/C was 95 % of control.

**Q.** What about the T/C [10] of the same compound?
**A.** Its T/C is 107 % of control.

**Q.** And the T/C [12]?
**A.** Its T/C is 100 % of control.

**Q.** Which results are given for `Cc1ccnc2c([N+](=O)[O-])cccc12`?
**A.** T/C (dose: 75.0 mg/kg/injection, schedule: Q01DX001 (ip), vehicle: other): 102 % of control; T/C [4]: 103 % of control; T/C (dose: 150.0 mg/kg/injection, schedule: Q01DX001 (ip), vehicle: other): 102 % of control; T/C [5]: 109 % of control; T/C (dose: 300.0 mg/kg/injection, schedule: Q01DX001 (ip), vehicle: other): 103 % of control

**Q.** How did the T/C [7] turn out when `Brc1ccc(C#Cc2ccccc2)cc1` was run?
**A.** Its T/C is 100 % of control.

**Q.** And the T/C [8]?
**A.** Its T/C is 100 % of control.

**Q.** What about the T/C [11] of the same compound?
**A.** The T/C was 108 % of control.
